Results as given in patent US10494346B2, “Substituted pyrimidine-4-carboxylic acids having anticancer activity” (KOREA INSTITUTE OF SCIENCE AND TECHNOLOGY, priority 2016, dated 2019).
Values belong to the molecule of their own block, whether it stands above or below them.

Legend:
[1] = system: KDM5A-overexpressed breast cancer cells, MCF7; experiment: Growth inhibitory activity on KDM5A-overexpressed cell lines (MCF7), single concentration; type: cell-based; settings: Homo sapiens; MCF7, single concentration 10 μM; read-out: Growth inhibitory activity at 10 μM (inhibition proportion %)
Description: The compound of the present invention was treated at a single concentration with KDM5A-overexpressed breast cancer cells, MCF7, and growth inhibitory activity was measured as an inhibition proportion (%).

[2] = system: MDA-MB-231 breast cancer cell line; experiment: Inhibitory activity on cancer cell proliferation, MDA-MB-231 (CellTiter-Glo, 72 hours); type: cell-based; settings: Homo sapiens; MDA-MB-231, 72 hours
Description: (§1) The following test was conducted to identify whether the compound of the present invention has inhibitory activity on cancer cell proliferation.
(§2) The cancer cells herein used were lung cancer cell lines (NCI-H1299, A549) and breast cancer cell lines (MDA-MB-231).
(§3) Specifically, the NCI-H1299 cells were large cell lung carcinoma cell lines derived from human lung cancer tissues, and the MDA-MB231 cells were cell lines derived from human breast cancer tissues and obtained from the Korean cell line bank (KNCC, Seoul university), which were used for tests after passage culture. The NCI-H1299 and MDA-MB231 cell lines were cultured in a RPMI1640 medium supplemented with 10% FBS (fetal bovine serum), and were washed with buffered saline (PBS, pH 7.4), when the cells were proliferated on a plate at an affluence of 70 to 80%, and isolated into single cells using a 0.05% trypsin-EDTA (welgene) solution, and then passage-cultured at 1×10e6 cells/mL which were used for the test. 100 μL of NCI-H1299 and 100 μL of MDA-MB231 were seeded on a 96-well plate at 2×10e4 cells/mL, and 5×10e4 cells/mL, respectively, stabilized in the presence of CO2 for 12 hours or longer, and then treated at different concentrations with the subject compound. After 72 hours, absorbance was measured using a CellTiter-Glo® Luminescent Cell Viability Assay (Promega) and an Envision 2103 multilabel reader (PerkinElmer). At this time, cells treated only with dimethylsulfoxide (DMSO) were used as the control group and relative viability (%) was calculated, based on 100% of the control group. GI50 was obtained using Graph PRISM 6 software.

[3] = system: A549 lung cancer cell line; experiment: Inhibitory activity on cancer cell proliferation, A549; type: cell-based; settings: Homo sapiens
Description: as §1, §2
as §3, with “100 μL of NCI-H1299 and 100 μL of MDA-MB231 were seeded on a 96-well plate at 2×10e4 cells/mL, and 5×10e4 cells/mL, respectively, stabilized in the presence of CO2 for 12 hours or longer, and then treated at different concentrations with the subject compound.” left out, “GI50 was obtained using Graph PRISM 6 software.” left out

NCI-H1299 cells = experiment: Inhibitory activity on cancer cell proliferation, NCI-H1299 (CellTiter-Glo, 72 hours); type: cell-based; settings: Homo sapiens; NCI-H1299, 72 hours
Description: as §1, §2
as §3, with “100 μL of NCI-H1299 and 100 μL of MDA-MB231 were seeded on a 96-well plate at 2×10e4 cells/mL, and 5×10e4 cells/mL, respectively, stabilized in the presence of CO2 for 12 hours or longer, and then treated at different concentrations with the subject compound.” left out, “GI50 was obtained using Graph PRISM 6 software.” left out

[4] = biological target: KDM5A (lysine demethylase 5A) (Homo sapiens, UniProt P29375); experiment: Inhibitory activity against histone demethylase (in vitro IC50); type: biochemical
Description: Inhibitory activity against histone demethylase of the compound of the present invention was evaluated.

KDM5A (lysine demethylase 5A), sequence (P29375 whole entry, species assumed): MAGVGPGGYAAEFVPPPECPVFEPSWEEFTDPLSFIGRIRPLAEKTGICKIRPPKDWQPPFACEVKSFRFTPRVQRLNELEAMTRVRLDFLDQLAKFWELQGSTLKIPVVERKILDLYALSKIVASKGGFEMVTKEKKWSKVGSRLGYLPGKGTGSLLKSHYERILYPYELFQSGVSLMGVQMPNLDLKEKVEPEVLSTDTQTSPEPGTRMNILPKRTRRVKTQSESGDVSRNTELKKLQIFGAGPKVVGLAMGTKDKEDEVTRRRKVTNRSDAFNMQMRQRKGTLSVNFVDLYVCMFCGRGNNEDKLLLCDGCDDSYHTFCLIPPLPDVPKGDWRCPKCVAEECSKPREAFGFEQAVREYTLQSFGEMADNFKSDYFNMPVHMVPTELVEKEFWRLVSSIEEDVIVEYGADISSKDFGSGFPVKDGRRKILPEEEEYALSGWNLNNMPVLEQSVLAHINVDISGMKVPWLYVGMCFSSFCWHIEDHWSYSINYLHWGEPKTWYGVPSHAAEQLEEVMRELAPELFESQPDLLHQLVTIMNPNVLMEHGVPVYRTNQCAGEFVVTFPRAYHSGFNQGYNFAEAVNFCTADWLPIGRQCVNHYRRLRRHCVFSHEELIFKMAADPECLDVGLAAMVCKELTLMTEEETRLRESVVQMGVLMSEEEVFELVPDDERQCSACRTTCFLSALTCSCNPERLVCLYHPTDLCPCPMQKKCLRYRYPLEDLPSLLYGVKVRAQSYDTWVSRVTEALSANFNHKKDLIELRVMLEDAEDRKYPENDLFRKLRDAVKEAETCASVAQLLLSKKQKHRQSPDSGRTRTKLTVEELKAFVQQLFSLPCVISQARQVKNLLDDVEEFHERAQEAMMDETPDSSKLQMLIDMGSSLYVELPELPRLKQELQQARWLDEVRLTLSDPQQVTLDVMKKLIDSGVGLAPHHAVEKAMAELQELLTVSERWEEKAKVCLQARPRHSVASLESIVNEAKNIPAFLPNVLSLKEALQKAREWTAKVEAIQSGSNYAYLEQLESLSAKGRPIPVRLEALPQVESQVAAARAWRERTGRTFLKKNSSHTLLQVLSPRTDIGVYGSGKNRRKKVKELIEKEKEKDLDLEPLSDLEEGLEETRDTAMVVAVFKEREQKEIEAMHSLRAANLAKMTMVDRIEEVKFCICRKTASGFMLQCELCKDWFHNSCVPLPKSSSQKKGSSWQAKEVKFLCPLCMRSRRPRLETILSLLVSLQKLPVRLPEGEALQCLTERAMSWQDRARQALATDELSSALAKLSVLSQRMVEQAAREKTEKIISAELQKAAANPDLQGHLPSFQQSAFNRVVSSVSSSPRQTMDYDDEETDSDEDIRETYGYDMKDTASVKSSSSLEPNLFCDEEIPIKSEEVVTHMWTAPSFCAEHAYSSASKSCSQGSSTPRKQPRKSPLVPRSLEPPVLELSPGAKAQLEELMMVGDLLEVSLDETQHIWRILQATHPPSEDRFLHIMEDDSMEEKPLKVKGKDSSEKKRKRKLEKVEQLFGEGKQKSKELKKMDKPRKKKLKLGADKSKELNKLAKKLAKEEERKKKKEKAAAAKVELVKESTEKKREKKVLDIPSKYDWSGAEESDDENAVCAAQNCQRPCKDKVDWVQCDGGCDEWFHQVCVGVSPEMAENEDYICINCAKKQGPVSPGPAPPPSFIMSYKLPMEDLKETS

SMILES: O=C(O)c1ncncc1NCc1ccc(-c2ccccc2)cc1 [Example 1, 5-(([1,1′-biphenyl]-4-ylmethyl)amino)pyrimidine-4-carboxylic Acid]
inhibition at 10 µM [1]: 40 to 80%

SMILES: O=C(O)c1ncncc1NCc1ccc(Cl)c(Cl)c1 [Example 3, 5-((3,4-dichlorobenzyl)amino)pyrimidine-4-carboxylic Acid]
GI50 [2]: 10 to 100 µM | GI50 [3]: 10 to 100 µM

SMILES: O=C(O)c1ncncc1NCc1ccc(F)cc1 [Example 6, 5-((4-fluorobenzyl)amino)pyrimidine-4-carboxylic Acid]
GI50 [2]: 10 to 100 µM

SMILES: O=C(O)c1ncncc1NCc1cc(C(F)(F)F)cc(C(F)(F)F)c1 [Example 7, 5-((3,5-bis(trifluoromethyl)benzyl)amino)pyrimidine-4-carboxylic Acid]
GI50 [2]: 10 to 100 µM

Other lines, results leading:

GI50 [2]: 10 to 100 µM
SMILES: Cc1ccc(CNc2cncnc2C(=O)O)cc1 [Example 9, 5-((4-methylbenzyl)amino)pyrimidine-4-carboxylic Acid]

GI50 (NCI-H1299 cells): < 10 µM
SMILES: O=C(O)c1ncncc1NCc1cccc(F)c1 [Example 10, 5-((3-fluorobenzyl)amino)pyrimidine-4-carboxylic Acid]

GI50 [2]: 10 to 100 µM | GI50 [3]: 10 to 100 µM | IC50 [4]: < 3 µM
SMILES: CCCn1nc(Nc2cncnc2C(=O)O)c2ccccc21 [Example 12, 5-((1-propyl-1H-indazol-3-yl)amino)pyrimidine-4-carboxylic Acid]
